Consider 8 compounds from ChEMBL document CHEMBL4265877, “Optimization of permeability in a series of pyrrolotriazine inhibitors of IRAK4” (Bioorg Med Chem, 2018).

The logD is the decadic logarithm of the distribution of all forms, ionised or not, between an organic phase and buffer at a given pH. Higher therefore signals a more lipophilic compound. One may read the Papp A→B as how fast a substance crosses the layer from the apical side.

Data set [1] in a line: Lipophilicity, log D of the compound at pH 7.4 by shake flask method. It is filed as physicochemical. Conditions: buffer.
A short description of data set [2]: Intrinsic clearance in human microsomes assessed per mg protein. It is filed as ADME, Microsome. To be noted: read-out: CLH.
Data set [3] is described as follows: Apparent permeability from apical to basolateral side in human Caco2 cells. It is filed as ADME, cell-based. To be noted: Caco-2. On the technique in general: Passage across Caco-2 layers is used to estimate intestinal permeability.

The compound `CN(C)[C@H]1CC[C@H](Nc2ncnc3ccsc23)CC1` registered a logD in data set [1] of -0.2.
Turning to `CN(C)[C@H]1CC[C@H](Nc2ncnn3cccc23)CC1`, the logD in data set [1] was found to be 0. Besides, in data set [2], the microsomal CLint is less than 3 µL/min/mg.
In data set [1], `CN(C)[C@H]1CC[C@H](Nc2ncnc3ccoc23)CC1` had a logD of -0.7.
On to `CN(C)[C@H]1CC[C@H](Nc2ncnc3cc[nH]c23)CC1`, for which the logD in data set [1] is -0.3. Besides, the microsomal CLint in data set [2] is less than 3 µL/min/mg.
In data set [1], `Cn1ccc2ncnc(N[C@H]3CC[C@H](N(C)C)CC3)c21` gave a logD of -0.8.
On the same count and under the same terms, then `CN(C)[C@H]1CC[C@H](Nc2ncnc3ccn(C4CCOCC4)c23)CC1`, with -0.6.
In data set [1], `CN(C)[C@H]1CC[C@H](Nc2ncnc3cscc23)CC1` registered a logD of 0.3. For the same compound, in data set [2], the microsomal CLint is 39 µL/min/mg.
`Cc1ccn2ncnc(N[C@H]3CC[C@H](N(C)C)CC3)c12` showed a logD in data set [1] of 0.2. Also, the apical-to-basolateral permeability (Papp A→B) in data set [3] is 36 ×10⁻⁶ cm/s.
